In US12569498B2, “Methods and compositions for the prevention and treatment of ischemia reperfusion injury and infection” (CHILDREN'S NATIONAL MEDICAL CENTER, priority 2019, dated 2026):
Entries after “also recorded” stand apart in the source; their conditions may differ.

Key:
[1] = Renal scar formation and trichrome collagen quantification after acute pyelonephritis; type: in vivo, C3H/HeOuJ mice
Protocol: To initiate pyelonephritis, the bladder was catheterized with a 24-gauge angiocatheter and a total volume of 100 μL of a phosphate-buffered saline containing […] colony forming units (CFU) of CFT073 uropathogenic Escherichia coli (UPEC) was then instilled.
Tissues were preserved in formalin for 72 hours then stored in ethanol. Sections were cut to a 5 μm thickness and stained with H&E or Masson trichrome. Photographs were obtained at 20× resolution with Olympus VS120 virtual slide microscope system. The images were then analyzed with ImageJ Fiji software in order to quantify collagen deposition as previously described (Chen 2017). As collagen deposition would be expected as long-term sequelae of IRI, the trichrome stains of the long-term specimen were examined. All artifacts from the staining process as well as gross collecting system were cropped from these images prior to analysis. A color deconvolution plugin was used to separate the trichrome images into the separate colors. Analysis was performed based upon the percentage of deposition of collagen in the green image compared to the overall area of the kidneys.
Tissues harvested 21 days following completion of antibiotic therapy were subjected to trichome staining to assess for global collagen deposition. After removing artifacts (to ensure only parenchyma was included in the analysis), a color deconvolution plugin was used for ImageJ to divide the images into the respective three colors of the trichrome stain. A threshold was set and collagen was quantified as a percentage of green color in respect to the area of the entire kidney (FIG. 13).

[2] = cited from earlier work
[3] = Testis weight vs contralateral testis 30 days after torsion (testicular atrophy); type: in vivo, CD1 mice; conditions: drug given an hour after the onset of torsion; 30 days after reperfusion; vs untreated
Protocol: (§1) Unilateral testicular torsion was induced in mature male CD1 mice by rotating the right testicle 720 degrees for 2 hours. Treatment with cytisine or varenicline was initiated one hour prior or one hour after the creation of testicular torsion. Testes were harvested 18 hours and 30 days following reperfusion. The acute inflammatory response was quantified with FACS analysis, […], reduced glutathione levels and quantification of the expression of IRI markers. Long term (30 day) outcomes were assessed by histologic evaluation, quantification of the expression of pro-fibrotic genes and measurement of testicular weight.
(§2) Mice underwent testicular torsion as previously described (Lysiak 2001). Briefly, mice were anesthetized with isoflurane over a heating pad. The right testis was delivered through a low scrotal incision and rotated counterclockwise 720 degrees to induce ischemia for 2 hours. […] All animals were injected with long-acting buprenorphine (0.1 mg/kg) for long-term pain control prior to being recovered from anesthesia. Mice were euthanized either 18 hours or 30 days following torsion. Mice kept for 30 days after surgery were weighed on a weekly basis.
(§3) Cytisine (Sigma-Aldrich, St. Louis, MO) was administered intraperitoneally at a dose of 0.1 μg/gram either 1 hour before torsion or 1 hour after torsion (1 hour prior to detorsion). Varenicline ([…]) was administered as an intraperitoneal injection one hour after the onset of torsion and then continued every 12 hours for a total of 4 doses.
The degree of testicular atrophy was determined by comparing the weight of the torsed testis to the contralateral control testis 30 days after reperfusion.

[4] = Masson trichrome staining and ImageJ quantification of collagen in testis 30 days after torsion; type: in vivo, CD1 mice; conditions: 30 days following torsion, vs untreated, cytisine p<0.01, varenicline p<0.0001
Protocol: as §2, §3
Testis tissue was harvested and stored in 70% ethanol. Fixation, embedding, sectioning, and staining were performed by the research pathology core at George Washington University. Sections were cut at a thickness of […]. Tissues were stained for H&E or Masson trichrome. Photographs were scanned at 20× resolution with Olympus VS120 virtual slide microscope system. TIF images were analyzed with ImageJ Fiji software as previously described (Caetano, Fronza et al. 2016). The color deconvolution plugin was used to perform ImageJ analysis on an area measuring 3000 square pixels. Automatic thresholding was performed. The amount of collagen in each area is expressed as the percentage of blue pixels in the image area taken as an average of 3 non-overlapping measurements.

[5] = mice (Obach 2006); cited from earlier work
[6] = tested on: CD45+ immune cells in the torsed testis; experiment: Flow cytometry of CD45+ immune cell infiltrate in testis after testicular torsion; type: in vivo, CD1 mice; conditions: varenicline 1 grm/kg i.p. 1 hour after onset of torsion; 48 hours after reperfusion; P≤0.0001
Protocol: as §1
Mice underwent testicular torsion as previously described (Lysiak 2001). Briefly, mice were anesthetized with isoflurane over a heating pad. […]
Eighteen hours after reperfusion of the testis in the cytisine group and 48 hours after reperfusion in the varenicline group, bilateral testes were harvested, homogenized and digested with digestion solution containing 0.5% FBS, 20 mM HEPES, RPMI Medium, 0.057 U/ml DNase I, 1 mg/ml collagenase b. Cells were washed, counted with a hemocytometer and 1 million then diluted to 1 million cells per mL. […] For each sample 300,000 live cells were counted using BD FACSCalibur (BD Biosciences, San Jose, CA) and analyzed with FlowJo 9.0 software (TreeStar, Ashland, OR).

[7] = tested on: pro-fibrotic genes Col1, Col3, Vim, SMA; experiment: RT-PCR of pro-fibrotic markers in testis 30 days after torsion; type: in vivo, CD1 mice; conditions: for relative expression of collagen 1 (Col1) / relative expression of collagen 3 (Col3) / relative expression of smooth muscle actin (Sma) / relative expression of vimentin (Vim): 30 days following torsion, vs untreated
Protocol: as §2, §3
RNA was isolated from testis tissue using RNEasy mini kit (Qiagen, Hilden, Germany) using the manufacturer's protocol. RNA concentration was measured with Nanodrop 8000 (Thermo Scientific, Waltham, MA). cDNA was synthesized using Superscript First-Strand Synthesis system for RT-PCR (Invitrogen, Carlsbad, CA) on a GeneAmp PCR System 9700 (Applied Biosystems, Foster City, CA) Real-Real-time PCR was performed using QuantStudio 7 Flex (Applied Biosystems, Foster City, CA). Software Quantstudio Real-Time PCR Software (Thermo Fisher Scientific, Waltham, MA). TaqMan Gene Expression Assays (Applied Biosystems, Foster City, CA). Standard TaqMan primers were used for Col1, Col3, Vim, SMA.

[8] = adolescents aged 12-16, of 75 patients (Faessel 2009)

Structure (SMILES): c1cnc2cc3c(cc2n1)C1CNCC3C1 [varenicline, 7,8,9, 10-tetrahydro-6, 10-methano-6H-pyrazino[2,3-h][3]benzazepine]
- collagen deposition in the kidneys (percentage of green pigment per area of entire kidney) ([1]; 21 days following completion of antibiotic therapy, varenicline plus ceftriaxone vs ceftriaxone alone, p=0.001): significantly lower amount of collagen deposition; also recorded: long-term decrease in collagen deposition
- incidence of renal scar formation and renal atrophy ([1]; 30 days following acute pyelonephritis, preliminary results): decreased
- incidence of neurocognitive side effects ([2]; adolescents aged 12-16 (Faessel 2009)): 3 out of 75
- abnormal dreams [2, 8]: 2 patients
- transient mild anger [2, 8]: 1 patient
- testicular atrophy (weight of torsed testis vs contralateral control testis) [3]: limited long term testicular atrophy; also recorded: preserved testicular weight
- collagen content of testis (trichrome staining, percentage of collagen) [4]: untreated group had significantly higher collagen content; also recorded: decreased histologic and genetic markers of testicular fibrosis
- collagen content of testis (trichrome staining, percentage of collagen) ([4]; listed as Varenicline): significantly higher percentage of collagen in the untreated animals
- half-life [5]: 1.4 h
- acute immune cell (leukocyte) infiltrate in testis [6]: decreased leukocyte infiltrate; also recorded: reduction in the acute immune cell infiltrate
- relative expression of collagen 1 (Col1) [7]: reduced the expression; also recorded: significantly decreased
- relative expression of collagen 3 (Col3) [7]: reduced the expression; also recorded: significantly decreased
- relative expression of smooth muscle actin (Sma) [7]: reduced the expression; also recorded: significantly decreased
- relative expression of vimentin (Vim) [7]: reduced the expression; also recorded: significantly decreased
- relative expression of collagen 1 (Col1) ([7]; listed as Varenicline): significantly decreased
- relative expression of collagen 3 (Col3) ([7]; listed as Varenicline): significantly decreased
- relative expression of smooth muscle actin (Sma) ([7]; listed as Varenicline): significantly decreased
- relative expression of vimentin (Vim) ([7]; listed as Varenicline): significantly decreased
- expression of pro-fibrotic genes / genetic markers of testicular fibrosis ([7]; long term (30 day) outcome, genes not itemised): decreased histologic and genetic markers of testicular fibrosis
